The values that follow come from PMC8086157, “Cryo-EM structure of a thermostable bacterial nanocompartment” (IUCrJ, 2021).

In the experiment the target is T1, T. maritima encapsulin (TmEnc) (Thermotoga maritima, UniProt Q9WZP2).
T1 construct: gene enc; codon-optimized gene in pET-11a, E. coli Rosetta2 (DE3); no tag mentioned; icosahedral shell without cargo protein; flavin site formed by three subunits
T1 sequence (Q9WZP2 1-265): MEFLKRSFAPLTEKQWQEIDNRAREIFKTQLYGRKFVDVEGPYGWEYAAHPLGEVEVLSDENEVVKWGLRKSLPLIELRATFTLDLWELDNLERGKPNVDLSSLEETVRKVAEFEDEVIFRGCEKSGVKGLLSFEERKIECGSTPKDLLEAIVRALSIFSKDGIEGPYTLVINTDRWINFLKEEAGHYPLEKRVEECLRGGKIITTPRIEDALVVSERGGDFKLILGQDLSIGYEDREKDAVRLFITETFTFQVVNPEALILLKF
In words: cryo-EM structure ([…] Å). Format: binding. The settings on record: co-purified from E. coli lysate through 80°C step; exact flavin identity ambiguous, FMN modelled; exterior site near threefold axis, stacks on Trp87; Tris pH 8.0, 150 mM NaCl.

Take `Cc1cc2nc3c(=O)[nH]c(=O)nc-3n(C[C@H](O)[C@H](O)[C@H](O)COP(=O)(O)O)c2cc1C` [flavin mononucleotide]: the “cryo-EM structure (2.0 Å)” value is “flavin mononucleotide (FMN) seems to be consistent with the density and has been modeled”.
